# Columns and labels:
# [1] = system: Nuclei from HL-60 Bcl-2 cells; test: AP24-induced DNA fragmentation in nuclei isolated from pretreated cells; assay type: cell-based, human; conditions: for % DNA Fragmentation: cells incubated with W-188 5 μg/ml 4 hr, 20 hr assay
# From the text: Nuclei isolated from HL-60-Bcl-2 cells were resistant to AP24-induced DNA fragmentation, as expected (Wright, S. C., et al., Cancer Res., 1998, 58:5570).
# GSH = test: Intracellular GSH levels; assay type: cell-based
# From the text: (§1) However, more recent findings indicate that W-188 may also downregulate expression of endogenous Bcl-2 in cells that naturally have high levels of this protein.
# [2] = Body weight of RIF-1 tumor bearing mice
# From the text: Groups of five mice each were inoculated s.c. with RIF-1 cells. The tumors were allowed to grow for 12 days to a size of 0.5 cm diameter, which was designated day 0. […] The mice were weighed and the tumor size measured every day.
# PW cells = test: Subcellular distribution of W-188 in PW cells (absorbance at 380 nm); assay type: in vitro ADME, human
# Method: A method to measure the subcellular localization of this compound was developed by the inventors of the present invention. Because of its distinctive absorbance spectrum, W-188 can be detected in cell and tissue extracts by measuring absorbance at 380 nm, and quantitated relative to a standard curve constructed with known amounts of W-188. HL-60 and PW cells containing vector control or overexpressing Bcl-2 were incubated with W-188 followed by cell lysis and isolation of nuclei, mitochondria, and cytotol by differential centrifugation.
# Furthermore, it can be seen that nuclei and mitochondria from cells overexpressing Bcl-2 accumulated higher levels of W-188 than the vector control cells. These findings are consistent with the hypothesis that W-188 may counteract the protective effects of Bcl-2 mediated at both the mitochondria as well as the nucleus.
# caspase 3 = test: Caspase 3 activity (DEVDase); assay type: cell-based
# From the text: as §1
# [3] = system: Normal human venous endothelial cells; test: Cytotoxicity to normal venous endothelial cells (MTT dye reduction assay); assay type: cell-based
# [4] = as above; assay type: cell-based, human; conditions: human, normal venous endothelial cells, 6 h
# HL-60-Bcl-2 cells = test: 10 day colony formation assay, HL-60-Bcl-2; assay type: cell-based, human; conditions: not shown
# From the text: LY-ar was highly resistant to apoptosis induced by y-radiation. […] The apparent selective effects of W-188 may be due to the preferential intracellular accumulation of porphyrin compounds in transformed cells as opposed to normal cells reported previously (Bugelski, P. J., et al., Cancer Res., 1981, 41:4606).
# overexpression of Bcl-2 = test: Comparison with compounds reported to counteract Bcl-2; assay type: cell-based; conditions: at 2.5 [M; data not shown
# From the text: W-188 was then compared to other compounds previously reported to counteract Bcl-2 (Marchetti, P., et al., J. Immunol., 1996, 157:4830; Hirsch, T., et al., Exp. Cell Res., 1998, 241:426).
# HL-60 Bcl-2 cells = test: DNA fragmentation (release of 3H-labeled DNA fragments) in Bcl-2-transfected HL-60 cells; assay type: cell-based, human
# P3X63Ag8.653 (P3X) cells = test: Drug-induced DNA fragmentation in Bcl-XL-overexpressing myeloma cells; assay type: cell-based, murine; conditions: W-188 0.1 μg/mL; etoposide, chlorambucil, YW-200; 24 h; FIG. 5
# Method: It has been reported that the murine myeloma, SP2/0, is highly sensitive to cycloheximide-induced apoptosis, whereas the related murine myeloma, P3X63Ag8.653 (P3X), was resistant (Gauthier, E. R., et al., Cancer Res., 1996, 56:1451). This resistance was attributed to natural high levels of expression of Bcl-XL in the absence of any detectable Bcl-2. In contrast, SP2 expressed neither Bcl-2 or Bcl-XL. Thus, normal (SP2) or Bcl-XL-overexpressing cells (P3X) were treated with chemotherapeutic drugs ±0.1 μg/ml W-188. After 24 h, % DNA fragmentation was measured by release of ^3H-labeled DNA fragments.
# P3X was relatively resistant to DNA fragmentation induced by three chemotherapeutic drugs, etoposide, chlorambucil, and YW-200, relative to SP2 (FIG. 5). YW-200 is an experimental DNA-binding chemotherapeutic drug related to CC-1065 (Wang, Y., et al., U.S. Pat. No. 5,843,937, 1998).
# HL-60 neo cells = test: DNA fragmentation (release of 3H-labeled DNA fragments) in vector control HL-60 neo cells; assay type: cell-based, human; conditions: neo cell lines (HL-60 neo, PW neo); compound added to inducers
# Method: The present study evaluated the ability of W-188 to sensitize Bcl-2-overexpressing cells to induce apoptosis. The human myelogenous leukemia, HL-60, and the human B cell leukemia, PW, normally express very low levels of Bcl-2. As a model system, W-188 and various analogs and derivatives were tested in normal HL-60 and PW cells and in Bcl-2-transfected HL-60 and PW cells that overexpress high levels of Bcl-2 (see Gilbert et al., J. Cell Physiol., 1996, 171:299).
# As depicted in FIG. 4, HL-60 cells (Panel A) and PW cells (Panel B) cells were exposed to various apoptosis inducers: TNF at 5 ng/ml; etoposide at 20 μM; and UV at 0.08 J/cm^2. The release of 3H-labeled DNA fragments was measured after 5 h. Normal HL-60 and PW cells were equally sensitive to apoptosis inducers as compared with cells that were transfected with vector encoding neomycin resistance (HL-60 neo and PW neo) only. […] W-188 alone was nontoxic. The addition of W-188 to the neo cell lines caused a 1.5-2 fold increase in DNA fragmentation in response to the various apoptosis inducers.
# [5] = W-188 + etoposide, HL-60-Bcl-2 and LY-ar cells
smiles,measurement,setting,value
"CCC1=C(C)C(/C=C2\NC(=O)C(C)=C2CC)=NC/1=C\c1[nH]c(/C=C2\NC(=O)C(C)=C2CC)c(C)c1CC [W-188, etiobiliverdin-IV]",% DNA Fragmentation,[1]; AP24 dilution 1:10,44 ± 4.8%
same,% DNA Fragmentation,[1]; AP24 dilution 1:20,19 ± 1.0%
same,Sensitivity of isolated nuclei to AP24-induced DNA fragmentation (in words),[1]; pretreatment of HL-60-Bcl-2 cells,restored the sensitivity of the isolated nuclei to AP24-induced DNA fragmentation
same,Intracellular levels of GSH,GSH; [5],caused depletion of GSH
same,Intracellular levels of GSH,GSH; W-188 alone,did not affect intracellular levels of GSH or caspase 3 activity
same,Body weight,"[2]; W-188 + Dox 5 mg/kg, FIG. 12","did lose weight, but not much more than those mice treated with Dox 5 mg/kg alone"
same,Body weight,"[2]; W-188 alone, data not shown",did not show any decrease in weight
same,"W-188 (μg/mg protein), Cytosol",PW cells; PW Bcl-2,0 μg/mg protein
same,"W-188 (μg/mg protein), Mitochondria",PW cells; PW Bcl-2,4.5 μg/mg protein
same,"W-188 (μg/mg protein), Nuclei",PW cells; PW Bcl-2,166 μg/mg protein
same,"W-188 (μg/mg protein), Cytosol",PW cells; PW neo,0 μg/mg protein
same,"W-188 (μg/mg protein), Mitochondria",PW cells; PW neo,2.5 μg/mg protein
same,"W-188 (μg/mg protein), Nuclei",PW cells; PW neo,133 μg/mg protein
same,Caspase 3 activity (DEVDase),caspase 3; [5],activation of caspase 3
same,Caspase 3 activity (DEVDase),caspase 3; W-188 alone,did not affect intracellular levels of GSH or caspase 3 activity
same,Effect on toxic effects of etoposide on normal cells,[3],did not increase the toxic effects of etoposide
same,Augmentation of killing of endothelial cells by etoposide or YW-200,[3]; W-188 at concentrations as high as 50 μg/mL,did not augment the killing of endothelial cells by etoposide or YW-200
same,"cytotoxicity at 6 h, 25 μg/mL","[4]; W-188 25 μg/mL, etoposide 0 μM",7 ± 1.5%
same,"cytotoxicity at 6 h, 50 μg/mL","[4]; W-188 50 μg/mL, etoposide 0 μM",22 ± 2%
same,"cytotoxicity at 6 h, 25 μg/mL",[4]; YW-200 0.01 μM + W-188 25 μg/mL,38 ± 4.9%
same,"cytotoxicity at 6 h, 50 μg/mL",[4]; YW-200 0.01 μM + W-188 50 μg/mL,59 ± 2.2%
same,"cytotoxicity at 6 h, 25 μg/mL",[4]; etoposide 100 μM + W-188 25 μg/mL,11 ± 1.5%
same,"cytotoxicity at 6 h, 50 μg/mL",[4]; etoposide 100 μM + W-188 50 μg/mL,21 ± 1.6%
same,Sensitization to cell death mediated by etoposide and chlorambucil,HL-60-Bcl-2 cells,sensitized HL-60-Bcl-2 and LY-ar cells to cell death mediated by etoposide and chlorambucil
same,Reversal of the effect of overexpression of Bcl-2,overexpression of Bcl-2,completely reversed the effect of overexpression of Bcl-2
same,% DNA Fragmentation,"HL-60 Bcl-2 cells; Exp 1, etoposide 5 μM + compound 5 μM",40%
same,% DNA Fragmentation,"HL-60 Bcl-2 cells; Exp 1, etoposide 5 μM + compound 10 μM",76%
same,% DNA Fragmentation,"HL-60 Bcl-2 cells; Exp 2, etoposide 10 μM + compound 10 μM",62%
same,% DNA Fragmentation,"HL-60 Bcl-2 cells; Exp 3, etoposide 5 μM + compound 10 μM",92%
same,% DNA Fragmentation,"HL-60 Bcl-2 cells; Exp 4, etoposide 5 μM + compound 10 μM",59%
same,% DNA Fragmentation,"HL-60 Bcl-2 cells; Exp 5, etoposide 10 μM + compound 10 μM",55%
same,"Sensitization to DNA fragmentation induced by TNF, etoposide and UV light","HL-60 Bcl-2 cells; TNF 5 ng/ml, etoposide 20 μM, UV 0.08 J/cm^2, 5 h, FIG. 4A",dose-dependently sensitized HL-60 Bcl-2 cells to DNA fragmentation induced by all three agents
same,Optimal doses giving DNA fragmentation comparable with HL-60 neo cells,"HL-60 Bcl-2 cells; TNF, etoposide or UV, 5 h",25 to 50 µg/mL
same,Toxicity of compound alone,"HL-60 Bcl-2 cells; W-188 alone, no apoptosis inducer",nontoxic
same,Bcl-2-sensitizing activity (in words),"HL-60 Bcl-2 cells; tumor cells overexpressing Bcl-2, Table 4",most potent
same,Sensitization to drug-induced DNA fragmentation,P3X63Ag8.653 (P3X) cells,sensitized P3X to undergo drug-induced DNA fragmentation at levels close to or equal to those of SP2
same,Increase in DNA fragmentation in response to apoptosis inducers,HL-60 neo cells,1.5-2 fold
